For data set [1], the system named is intracellular L. donovani amastigotes. The experiment in a line: Luminescent-based evaluation of intracellular anti-leishmanial activity in THP-1 macrophages. Particulars: intracellular Leishmania donovani in THP1 macrophages, luminescence assay (Supplemental Table 2); read-out: Lum IC50. It counts as cell-based, Leishmania donovani. A digest of the protocol:
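PMA-differentiated THP-1 macrophages (150 nM, 72 h) were infected 18 h with firefly luciferase-expressing L. donovani LV82 promastigotes, then washed. Infected cells were treated with compounds at 0.1-10 μM for 72 h. Surviving intracellular amastigotes were quantified by firefly luciferase luminescence after cell lysis and 10 min substrate incubation at room temperature.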

The subject of a further data set is THP-1 macrophages. The experiment in a line: Effect of compounds on host cell viability (MTT). It is filed as cell-based. Particulars: read-out: 24h LC50; THP1 macrophages, 24-hour incubation, MTT assay (Supplemental Table 2). The gist of the method: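 THP-1 cells were differentiated with 150 nM PMA for 72 h, then exposed to compounds at 1–50 μM for 24 h; selected compounds were also run at 1–300 μM for 72 h. MTT at 0.5 mg/mL was added for 2 h at 37 °C, and formazan absorbance was read at 560 nm minus 670 nm.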
In general terms: Tetrazolium assays rely on reduction of a dye to a coloured formazan, in cell work by metabolically active cells.

The structures appear in SMILES notation.

For orientation: IC50 means the concentration needed to halve the response being measured.

Turning to `COC(=O)c1ccc(-n2cc(C(F)(F)F)nc2-c2ccc(-c3ccc(C(F)(F)F)cc3)cc2)c(F)c1` [Compound 175], the IC50 in data set [1] is more than 10 µM. Moreover, the CC50 in the data set with THP-1 macrophages is more than 50 µM.
In the same order, the values of `O=C(O)c1ccc(-n2cc(C(F)(F)F)nc2-c2ccc(-c3ccc(C(F)(F)F)cc3)cc2)c(F)c1` [Compound 176] are more than 10 µM and more than 50 µM.
On to `N#Cc1ccc(-n2cc(C(F)(F)F)nc2-c2ccc(-c3ccc(C(F)(F)F)cc3)cc2)cc1` [Compound 177], for which the IC50 in data set [1] was more than 10 µM. In addition, the CC50 in the data set on THP-1 macrophages is more than 50 µM.
On the same counts, the results for `O=C(c1ccc(-n2cc(C(F)(F)F)nc2-c2ccc(-c3ccc(C(F)(F)F)cc3)cc2)c(F)c1)N1CCC(NCc2cccc(F)c2)C1` (centres unmarked) [Compound 178] are more than 10 µM and more than 50 µM.
On the same counts, the results for `CS(=O)(=O)c1ccc(-n2nc(C(F)(F)F)cc2-c2ccc(-c3ccc(C(F)(F)F)cc3)cc2)cc1` [Compound 179] are more than 10 µM and 45 µM.
Turning to `N#Cc1ccc(-n2cc(C(F)(F)F)nc2-c2ccc(-c3ccccc3)cc2)cc1` [Compound 180], in data set [1], the half-inhibitory concentration (IC50) is more than 10 µM. Besides, the CC50 in the data set on THP-1 macrophages was more than 50 µM.
In the same order, the values of `O=C(NCc1cccc(F)c1)c1ccc(-n2cc(C(F)(F)F)nc2-c2ccc(-c3ccc(C(F)(F)F)cc3)cc2)c(F)c1` [Compound 181] are more than 10 µM and 28.7 µM.
On the same counts, the results for `CC(C)(C)OC(=O)NC1CCN(C(=O)c2ccc(-n3cc(C(F)(F)F)nc3-c3ccc(-c4ccc(C(F)(F)F)cc4)cc3)c(F)c2)C1` (centres unmarked) [Compound 182] are 5.9 µM and 18 µM.
In the same order, the values of `FC(F)(F)Oc1ccc(-n2cc(C(F)(F)F)nc2-c2ccc(-c3ccccc3)cc2)cc1` [Compound 183] are more than 10 µM and more than 50 µM.
On to `CC(=O)c1ccc(-n2cc(C(F)(F)F)nc2-c2ccc(-c3ccccc3)cc2)cc1` [Compound 184], for which, in data set [1], the concentration for half-maximal inhibition (IC50) is 5 µM. For the same compound, the CC50 with THP-1 macrophages is more than 50 µM.
On the same counts, the results for `Cc1ccc(-n2nc(C(F)(F)F)cc2-c2ccc(-c3ccc(C(F)(F)F)cc3)cc2)c(C)c1` [Compound 185] are more than 10 µM and more than 50 µM.
On the same counts, the results for `FC(F)(F)Oc1ccc(-n2nc(C(F)(F)F)cc2-c2ccc(-c3ccc(C(F)(F)F)cc3)cc2)cc1` [Compound 186] are more than 10 µM and more than 50 µM.
In the same order, the values of `COc1ccc(-n2nc(C(F)(F)F)cc2-c2ccc(-c3ccc(C(F)(F)F)cc3)cc2)c(C)c1` [Compound 187] are more than 10 µM and more than 50 µM.
Consider `NS(=O)(=O)c1ccc(-n2nc(C(F)(F)F)cc2-c2ccc(-c3ccc(C(F)(F)F)cc3)cc2)cc1` [Compound 188], for which, in data set [1], the concentration for half-maximal inhibition (IC50) turned out to be 3.1 µM. Moreover, the CC50 in the data set with THP-1 macrophages was 9 µM.
`O=[N+]([O-])c1cccc(-n2nc(C(F)(F)F)cc2-c2ccc(-c3ccc(C(F)(F)F)cc3)cc2)c1` [Compound 189]: the concentration for half-maximal inhibition (IC50) in data set [1] was more than 10 µM. Further, in the data set on THP-1 macrophages, the CC50 was more than 50 µM.
Take `FC(F)(F)c1ccc(-c2ccc(-c3cc(C(F)(F)F)nn3-c3cccc(Br)c3)cc2)cc1` [Compound 190]: the IC50 in data set [1] was more than 10 µM. For the same compound, the CC50 in the data set with THP-1 macrophages was more than 50 µM.
On the same counts, the results for `CNS(=O)(=O)Cc1ccc(-n2nc(C(F)(F)F)cc2-c2ccc(-c3ccc(C(F)(F)F)cc3)cc2)cc1` [Compound 191] are more than 10 µM and 12 µM.
In the same order, the values of `O=[N+]([O-])c1ccc(-n2cc(C(F)(F)F)nc2-c2ccc(Br)cc2)cc1` [Compound 192] are more than 10 µM and more than 50 µM.
On the same counts, the results for `Nc1ccc(-n2cc(C(F)(F)F)nc2-c2ccc(Br)cc2)cc1` [Compound 193] are more than 10 µM and more than 50 µM.
`FC(F)(F)c1cc(-c2ccc(Cl)cc2)n(-c2ccc(Br)cc2)n1` [Compound 194]: in data set [1], the half-inhibitory concentration (IC50) is more than 10 µM. Moreover, the CC50 in the data set with THP-1 macrophages is more than 50 µM.
In the same order, the values of `NCC(=O)Nc1ccc(-n2cc(C(F)(F)F)nc2-c2ccc(Br)cc2)cc1` [Compound 195] are more than 10 µM and 38.6 µM.
On the same counts, the results for `Cc1ccc(-c2cc(C(F)(F)F)nn2-c2ccc(Br)cc2)cc1` [Compound 196] are more than 10 µM and more than 50 µM.
In the same order, the values of `FC(F)(F)c1cc(-c2ccc(Cl)c(Cl)c2)n(-c2ccc(Br)cc2)n1` [Compound 198] are more than 10 µM and more than 50 µM.
In the case of `NC1CCN(C(=O)c2ccc(-n3cc(C(F)(F)F)nc3-c3ccc(-c4ccc(C(F)(F)F)cc4)cc3)c(F)c2)C1` (centres unmarked) [Compound 199], in data set [1], the IC50 stood at 1.3 µM. For the same compound, the CC50 with THP-1 macrophages was 9.4 µM.
On the same counts, the results for `CC(C)(C)c1cc(C(F)(F)F)nn1-c1ccc(Br)cc1` [Compound 201] are more than 10 µM and more than 50 µM.
On the same counts, the results for `CC(C)(C)OC(=O)NC1CCN(c2ccc(-n3nc(C(F)(F)F)cc3C(C)(C)C)cc2)C1` (centres unmarked) [Compound 202] are 8.5 µM and more than 50 µM.
On the same counts, the results for `CC(C)(C)c1cc(C(F)(F)F)nn1-c1ccc(N2CCC(N)C2)cc1` (centres unmarked) [Compound 203] are 2.9 µM and 11.8 µM.
With `NC1CCN(c2ccc(-n3nncc3-c3ccc(C(F)(F)F)cc3)cc2)C1` (centres unmarked) [Compound 204], in data set [1], the IC50 was more than 10 µM. In addition, the CC50 with THP-1 macrophages turned out to be 37.2 µM.
In the same order, the values of `N#Cc1ccc(-n2cc(C(F)(F)F)cc2-c2ccc(-c3ccc(C(F)(F)F)cc3)cc2)cc1` [Compound 205] are more than 10 µM and more than 50 µM.
For `c1cn(-c2ccc3nonc3c2)cn1` [Compound 207], in data set [1], the concentration for half-maximal inhibition (IC50) is more than 10 µM. Further, the CC50 in the data set on THP-1 macrophages is more than 50 µM.
In the same order, the values of `FC(F)(F)c1ccc(-c2ccc(-c3cc(C(F)(F)F)nn3-c3ccc(N4CCNCC4)cc3)cc2)cc1` [Compound 208] are 5.7 µM and 31 µM.
For the compound `FC(F)(F)c1cc(-c2ccc(-c3cccs3)cc2)n(-c2ccc(N3CCNCC3)cc2)n1` [Compound 209], in data set [1], the concentration for half-maximal inhibition (IC50) was 3 µM. In addition, in the data set with THP-1 macrophages, the CC50 came to 10.2 µM.
In the same order, the values of `FC(F)(F)c1cc(-c2ccc(-c3ccsc3)cc2)n(-c2ccc(N3CCNCC3)cc2)n1` [Compound 210] are 2.5 µM and 10.5 µM.
On the same counts, the results for `FC(F)(F)c1cc(-c2ccc(C3CC3)cc2)n(-c2ccc(N3CCNCC3)cc2)n1` [Compound 211] are 2.1 µM and 13.2 µM.
In the same order, the values of `FC(F)(F)c1cc(-c2ccncc2)n(-c2ccc(Br)cc2)n1` [Compound 213] are more than 10 µM and more than 50 µM.
Take `CN(C)c1ccc(-c2cc(C(F)(F)F)nn2-c2ccc(Br)cc2)cc1` [Compound 214]: in data set [1], the IC50 is more than 10 µM. For the same compound, in the data set on THP-1 macrophages, the CC50 is more than 50 µM.
On the same counts, the results for `FC(F)(F)c1cc(C2CCCCC2)n(-c2ccc(Br)cc2)n1` [Compound 215] are more than 10 µM and more than 50 µM.
On the same counts, the results for `FC(F)(F)c1cc(C2CCCCC2)nn1-c1ccc(Br)cc1` [Compound 216] are more than 10 µM and more than 50 µM.
In the same order, the values of `CN(C)c1ccc(-c2cc(C(F)(F)F)nn2-c2ccc(N3CCC(NC(=O)OC(C)(C)C)C3)cc2)cc1` (centres unmarked) [Compound 217] are more than 10 µM and more than 50 µM.
Turning to `FC(F)(F)c1c[nH]c(-c2ccc(Oc3ccccc3)cc2)n1` [Compound 218], in data set [1], the IC50 was more than 10 µM. Besides, in the data set on THP-1 macrophages, the CC50 is more than 50 µM.
In the same order, the values of `FC(F)(F)c1cn(-c2ccc(Br)cc2)c(-c2ccc(Oc3ccccc3)cc2)n1` [Compound 219] are more than 10 µM and more than 50 µM.
As to `FC(F)(F)c1ccc(-c2ccc(-c3cc(C(F)(F)F)nn3-c3ccc(N4CCNCC4)cc3)cc2)cc1` [Compound 220], in data set [1], the IC50 came out at 1.3 µM. Besides, the CC50 in the data set on THP-1 macrophages is 15.4 µM.
`Nc1ccc(-n2cc(C(F)(F)F)nc2-c2ccc(Oc3ccccc3)cc2)cc1` [Compound 221]: the IC50 in data set [1] is more than 10 µM. Moreover, in the data set on THP-1 macrophages, the CC50 is more than 50 µM.
On the same counts, the results for `Fc1cccc(CN2CCN(c3ccc(-n4nc(C(F)(F)F)cc4-c4ccc(-c5ccc(C(F)(F)F)cc5)cc4)cc3)CC2)c1` [Compound 222] are more than 10 µM and more than 50 µM.
On the same counts, the results for `CC(C)(C)OC(=O)NC1CCN(c2ccc(-n3nc(C4CCCCC4)cc3C(F)(F)F)cc2)C1` (centres unmarked) [Compound 229] are 3.4 µM and 5 µM.
On the same counts, the results for `CC(C)(C)OC(=O)NC1CCN(c2ccc(-n3nc(C(F)(F)F)cc3C3CCCCC3)cc2)C1` (centres unmarked) [Compound 230] are more than 10 µM and 9.5 µM.
Take `CN(C)c1ccc(-c2cc(C(F)(F)F)nn2-c2ccc(N3CCC(N)C3)cc2)cc1` (centres unmarked) [Compound 231]: the IC50 in data set [1] amounted to 1.8 µM. In addition, the CC50 with THP-1 macrophages was determined as 10.8 µM.
As for `NC1CCN(c2ccc(-n3nc(C4CCCCC4)cc3C(F)(F)F)cc2)C1` (centres unmarked) [Compound 232], the IC50 in data set [1] was 2.6 µM. Moreover, the CC50 with THP-1 macrophages is 14.4 µM.
Turning to `Fc1cccc(CN2CCC(Nc3ccc(-n4cc(C(F)(F)F)nc4-c4ccc(-c5ccc(C(F)(F)F)cc5)cc4)cc3)C2)c1` (centres unmarked) [Compound 243], in data set [1], the half-maximal inhibitory concentration (IC50) is more than 10 µM. The CC50 with THP-1 macrophages was more than 50 µM.
On the same counts, the results for `O=S(=O)(c1ccc(-n2cc(C(F)(F)F)nc2-c2ccc(-c3ccc(C(F)(F)F)cc3)cc2)cc1)C(F)(F)F` [Compound 244] are more than 10 µM and more than 50 µM.
In the same order, the values of `COc1ccc(-n2cc(C(F)(F)F)nc2-c2ccc(-c3ccccc3)cc2)cc1` [Compound 245] are more than 10 µM and more than 50 µM.
On the same counts, the results for `FC(F)(F)c1ccc(-c2ccc(-c3nc(C(F)(F)F)cn3-c3ccc(NC4CCNC4)cc3)cc2)cc1` (centres unmarked) [Compound 246] are 3.8 µM and 5.5 µM.

Source of the values: publication doi:10.1101/2025.11.04.686469, “Discovery of Host-Directed Small Molecules with Broad Anti-Leishmanial Efficacy” (bioRxiv, 2025).
